Measured values published in patent US12721828B2, “Pharmaceutical liquid composition, kit of parts comprising the pharmaceutical liquid composition, and method for preparing the pharmaceutical liquid composition” (MPERIUM B.V., priority 2019, dated 2026).
Like-named read-outs stand apart in the source and are kept apart here.

Columns and labels:
[1] = 350 mg/ml, 6 hours, room temperature, Watson-Marlow 505-S pump, tube diameter 0.2 mm, rpm 50
Protocol: A 6 hour test has been performed wherein a SPB oplossing (350 mg/ml) was circulated at room temperature by a Watson-Marlow 505-S pump, tube diameter 0.2 mm, rpm 50. The pump settings correspond to an almost dropwise output. The speed was controlled to be low to simulate a worst case situation to signal blocking of the tube and/or crystallization of the SPB solution in the tube.

[2] = 1.88 mmol/ml (350 mg/mL SPB) in an aqueous solution
[3] = not given; remark: listed apart in the source

blockage of the tube and crystallization of the SPB solution in the tube [1]: did not occur
pH of aqueous solution [2]: > 8
behaviour during the dissolving process in purified water (SPB concentrations higher than 350 mg/ml): significant lumping
crystallization on storage ([3]; 500 mg/ml solution, clear glass bottles, 40° C.): crystallization after 1 week
Substance: Sodium Phenylbutyrate [SPB]
dissolving in purified water (500 mg/ml): required to pre-heat (40° C.) the purified water to dissolve the SPB completely
crystallization on storage ([3]; 450 mg/ml, 400 mg/ml and 350 mg/ml solutions, 2 weeks at 25° C., 40° C. and 5° C.): Only the SPB 500 mg/ml showed crystallization
